Data reported in patent US4822790A, “1-Sulfo-2-oxoazetidine derivatives and their production” (Takeda Chemical Industries, Ltd., priority 1980, dated 1989).

Experiments:
Type in all cases: cell-based
Candida albicans TA = test: Antibacterial test (MIC), Candida albicans TA; settings: for Minimum inhibitory concentration (MIC): medium TSA
Description: (§1) The following is media and compounds employed in the antibacterial test.
(§2) TSA=Trypticase soy agar [Baltimore Biologicals (U.S.A.)]
(§3) B-TSA=Blood trypticase soy agar

[1] = test system: Streptococcus pyogenes E-14; test: Antibacterial test (MIC), Streptococcus pyogenes E-14; settings: for Minimum inhibitory concentration (MIC): medium B-TSA
Description: as §1, §2, §3

[2] = test system: Enterobacter cloacae IFO 12937; test: Antibacterial test (MIC), Enterobacter cloacae IFO 12937; settings: for Minimum inhibitory concentration (MIC): medium TSA
Description: as §1, §2, §3

[3] = test system: Staphylococcus aureus FDA209P; test: Antibacterial test (MIC), Staphylococcus aureus FDA209P
Description: as §1, §2, §3

[4] = test system: Proteus morganii IFO 3168; test: Antibacterial test (MIC), Proteus morganii IFO 3168; settings: for Minimum inhibitory concentration (MIC): medium TSA
Description: as §1, §2, §3

[5] = test system: Pseudomonas aeruginosa IFO 3455; test: Antibacterial test (MIC), Pseudomonas aeruginosa IFO 3455; settings: for Minimum inhibitory concentration (MIC): medium TSA
Description: as §1, §2, §3

[6] = test system: Staphylococcus aureus 1840; test: Antibacterial test (MIC), Staphylococcus aureus 1840; settings: for Minimum inhibitory concentration (MIC): medium TSA
Description: as §1, §2, §3

[7] = test system: Streptococcus pneumoniae Type I; test: Antibacterial test (MIC), Streptococcus pneumoniae Type I; settings: for Minimum inhibitory concentration (MIC): medium B-TSA
Description: as §1, §2, §3

Klebsiella pneumoniae DT = test: Antibacterial test (MIC), Klebsiella pneumoniae DT; settings: for Minimum inhibitory concentration (MIC): medium TSA
Description: as §1, §2, §3

[8] = test system: Staphylococcus aureus 308A-1; test: Antibacterial test (MIC), Staphylococcus aureus 308A-1; settings: for Minimum inhibitory concentration (MIC): medium TSA
Description: as §1, §2, §3

[9] = test system: Proteus mirabilis IFO 3849; test: Antibacterial test (MIC), Proteus mirabilis IFO 3849; settings: for Minimum inhibitory concentration (MIC): medium TSA
Description: as §1, §2, §3

[10] = test system: Proteus vulgaris IFO 3988; test: Antibacterial test (MIC), Proteus vulgaris IFO 3988; settings: for Minimum inhibitory concentration (MIC): medium TSA
Description: as §1, §2, §3

[11] = test system: Escherichia coli NIHJ JC-2; test: Antibacterial test (MIC), Escherichia coli NIHJ JC-2; settings: for Minimum inhibitory concentration (MIC): medium TSA
Description: as §1, §2, §3

Escherichia coli T-7 = test: Antibacterial test (MIC), Escherichia coli T-7; settings: medium TSA
Description: as §1, §2, §3

[12] = test system: Bordetella bronchiseptica Sagami; test: Antibacterial test (MIC), Bordetella bronchiseptica Sagami; settings: for Minimum inhibitory concentration (MIC): medium B-TSA
Description: as §1, §2, §3

[13] = test system: Streptococcus pyogenes S-8; test: Antibacterial test (MIC), Streptococcus pyogenes S-8; settings: for Minimum inhibitory concentration (MIC): medium B-TSA
Description: as §1, §2, §3

[14] = test system: Pseudomonas aeruginosa U 31; test: Antibacterial test (MIC), Pseudomonas aeruginosa U 31; settings: for Minimum inhibitory concentration (MIC): medium TSA
Description: as §1, §2, §3

[15] = test system: Citrobacter freundii IFO 12681; test: Antibacterial test (MIC), Citrobacter freundii IFO 12681; settings: for Minimum inhibitory concentration (MIC): medium TSA
Description: as §1, §2, §3

[16] = test system: Streptococcus faecium IFO 3128; test: Antibacterial test (MIC), Streptococcus faecium IFO 3128; settings: for Minimum inhibitory concentration (MIC): medium B-TSA
Description: as §1, §2, §3

[17] = test system: Streptococcus mitis America; test: Antibacterial test (MIC), Streptococcus mitis America; settings: for Minimum inhibitory concentration (MIC): medium B-TSA
Description: as §1, §2, §3

Escherichia coli 0-111 = test: Antibacterial test (MIC), Escherichia coli 0-111; settings: medium TSA
Description: as §1, §2, §3

[18] = test system: Corynebacterium diphtheriae Toronto; test: Antibacterial test (MIC), Corynebacterium diphtheriae Toronto; settings: for Minimum inhibitory concentration (MIC): medium B-TSA
Description: as §1, §2, §3

[19] = test system: Serratia marcescens IFO 12648; test: Antibacterial test (MIC), Serratia marcescens IFO 12648; settings: for Minimum inhibitory concentration (MIC): medium TSA
Description: as §1, §2, §3

[20] = test system: Acinetobacter calcoaceticus IFO 13006; test: Antibacterial test (MIC), Acinetobacter calcoaceticus IFO 13006; settings: for Minimum inhibitory concentration (MIC): medium TSA
Description: as §1, §2, §3

Structure (SMILES): CCN1CCN(C(=O)NC(C(=O)NC2CN(S(=O)(=O)[O-])C2=O)c2cccs2)C(=O)C1=O.[Na+] (racemic) [Compound E, Sodium 3-[DL-2-(4-ethyl-2,3-dioxo-1-piperazinocarboxamido)-2-thienylacetamido]-2-oxoazetidine-1-sulfonate]
- Minimum inhibitory concentration (MIC) (Candida albicans TA): > 100 µg/mL
- Minimum inhibitory concentration (MIC) [1]: 1.56 µg/mL
- Minimum inhibitory concentration (MIC) [2]: 3.13 µg/mL
- Minimum inhibitory concentration (MIC) ([3]; medium B-TSA): 6.25 µg/mL
- Minimum inhibitory concentration (MIC) ([3]; medium TSA): 6.25 µg/mL
- Minimum inhibitory concentration (MIC) [4]: 12.5 µg/mL
- Minimum inhibitory concentration (MIC) [5]: 3.13 µg/mL
- Minimum inhibitory concentration (MIC) [6]: 25 µg/mL
- Minimum inhibitory concentration (MIC) [7]: 3.13 µg/mL
- Minimum inhibitory concentration (MIC) (Klebsiella pneumoniae DT): 0.78 µg/mL
- Minimum inhibitory concentration (MIC) [8]: 6.25 µg/mL
- Minimum inhibitory concentration (MIC) [9]: 0.78 µg/mL
- Minimum inhibitory concentration (MIC) [10]: < 0.1 µg/mL
- Minimum inhibitory concentration (MIC) [11]: 1.56 µg/mL
- Minimum inhibitory concentration (MIC) (Escherichia coli T-7): > 100 µg/mL
- Minimum inhibitory concentration (MIC) [12]: > 100 µg/mL
- Minimum inhibitory concentration (MIC) [13]: 3.13 µg/mL
- Minimum inhibitory concentration (MIC) [14]: > 100 µg/mL
- Minimum inhibitory concentration (MIC) [15]: 3.13 µg/mL
- Minimum inhibitory concentration (MIC) [16]: > 100 µg/mL
- Minimum inhibitory concentration (MIC) [17]: 25 µg/mL
- Minimum inhibitory concentration (MIC) (Escherichia coli 0-111): 0.2 µg/mL
- Minimum inhibitory concentration (MIC) [18]: 0.39 µg/mL
- Minimum inhibitory concentration (MIC) [19]: 3.13 µg/mL
- Minimum inhibitory concentration (MIC) [20]: 50 µg/mL

Structure (SMILES): CON=C(C(=O)NC1CN(S(=O)(=O)[O-])C1=O)c1csc(N)n1.[Na+] (stereo not drawn) [Compound A, Sodium 3-[2-(2-amino-4-thiazolyl)-2-methoxyiminoacetamido]-2-oxoazetidine-1-sulfonate]
- MIC (Candida albicans TA; Candida albicans, read-out: Minimum inhibitory concentration (MIC)): > 100 µg/mL
- MIC ([1]; Streptococcus pyogenes, E14, read-out: Minimum inhibitory concentration (MIC)): 3.13 µg/mL
- MIC ([2]; Enterobacter cloacae, IFO12937, read-out: Minimum inhibitory concentration (MIC)): > 100 µg/mL
- MIC ([3]; Staphylococcus aureus, FDA209P, read-out: Minimum inhibitory concentration (MIC)): 50 µg/mL
- Minimum inhibitory concentration (MIC) ([3]; medium B-TSA): 50 µg/mL
- MIC ([4]; Morganella morganii, IFO3168, read-out: Minimum inhibitory concentration (MIC)): 25 µg/mL
- MIC ([5]; Pseudomonas aeruginosa, IFO3455, read-out: Minimum inhibitory concentration (MIC)): 6.25 µg/mL
- MIC ([6]; Staphylococcus aureus, 1840, read-out: Minimum inhibitory concentration (MIC)): 100 µg/mL
- MIC ([7]; Streptococcus pneumoniae, read-out: Minimum inhibitory concentration (MIC)): 12.5 µg/mL
- MIC (Klebsiella pneumoniae DT; Klebsiella pneumoniae, read-out: Minimum inhibitory concentration (MIC)): 0.78 µg/mL
- MIC ([8]; Staphylococcus aureus, 308A1, read-out: Minimum inhibitory concentration (MIC)): 25 µg/mL
- MIC ([9]; Proteus mirabilis, IFO3849, read-out: Minimum inhibitory concentration (MIC)): 6.25 µg/mL
- MIC ([10]; Proteus vulgaris, IFO3988, read-out: Minimum inhibitory concentration (MIC)): 1.56 µg/mL
- MIC ([11]; Escherichia coli, NIHJJC2, read-out: Minimum inhibitory concentration (MIC)): 0.78 µg/mL
- MIC (Escherichia coli T-7; Escherichia coli, T7, read-out: Minimum inhibitory concentration (MIC)): > 100 µg/mL
- MIC ([12]; Bordetella bronchiseptica, read-out: Minimum inhibitory concentration (MIC)): 100 µg/mL
- MIC ([13]; Streptococcus pyogenes, S8, read-out: Minimum inhibitory concentration (MIC)): 3.13 µg/mL
- MIC ([14]; Pseudomonas aeruginosa, U31, read-out: Minimum inhibitory concentration (MIC)): > 100 µg/mL
- MIC ([15]; Citrobacter freundii, IFO12681, read-out: Minimum inhibitory concentration (MIC)): 1.56 µg/mL
- MIC ([16]; Enterococcus faecium, IFO3128, read-out: Minimum inhibitory concentration (MIC)): > 100 µg/mL
- MIC ([17]; Streptococcus mitis, read-out: Minimum inhibitory concentration (MIC)): 25 µg/mL
- MIC (Escherichia coli 0-111; Escherichia coli, 0111, read-out: Minimum inhibitory concentration (MIC)): 0.39 µg/mL
- MIC ([18]; Corynebacterium diphtheriae, read-out: Minimum inhibitory concentration (MIC)): 1.56 µg/mL
- MIC ([19]; Serratia marcescens, IFO12648, read-out: Minimum inhibitory concentration (MIC)): 12.5 µg/mL
- MIC ([20]; Acinetobacter calcoaceticus, IFO13006, read-out: Minimum inhibitory concentration (MIC)): 6.25 µg/mL

Structure (SMILES): CCN1CCN(C(=O)N[C@@H](C(=O)NC2CN(S(=O)(=O)[O-])C2=O)c2cccs2)C(=O)C1=O.[Na+] (stereo partly drawn) [Compound F, Sodium 3-[D-2-(4-ethyl-2,3-dioxo-1-piperazinocarboxamido)-2-thienylacetamido]-2-oxoazetidine-1-sulfonate]
- Minimum inhibitory concentration (MIC) (Candida albicans TA): > 100 µg/mL
- Minimum inhibitory concentration (MIC) [1]: 3.13 µg/mL
- Minimum inhibitory concentration (MIC) [2]: 50 µg/mL
- Minimum inhibitory concentration (MIC) ([3]; medium B-TSA): 6.25 µg/mL
- Minimum inhibitory concentration (MIC) ([3]; medium TSA): 6.25 µg/mL
- Minimum inhibitory concentration (MIC) [4]: 12.5 µg/mL
- Minimum inhibitory concentration (MIC) [5]: 6.25 µg/mL
- Minimum inhibitory concentration (MIC) [6]: 25 µg/mL
- Minimum inhibitory concentration (MIC) [7]: 6.25 µg/mL
- Minimum inhibitory concentration (MIC) (Klebsiella pneumoniae DT): 0.2 µg/mL
- Minimum inhibitory concentration (MIC) [8]: 6.25 µg/mL
- Minimum inhibitory concentration (MIC) [9]: 0.78 µg/mL
- Minimum inhibitory concentration (MIC) [10]: < 0.1 µg/mL
- Minimum inhibitory concentration (MIC) [11]: 0.78 µg/mL
- Minimum inhibitory concentration (MIC) (Escherichia coli T-7): > 100 µg/mL
- Minimum inhibitory concentration (MIC) [12]: > 100 µg/mL
- Minimum inhibitory concentration (MIC) [13]: 3.13 µg/mL
- Minimum inhibitory concentration (MIC) [14]: > 100 µg/mL
- Minimum inhibitory concentration (MIC) [15]: 1.56 µg/mL
- Minimum inhibitory concentration (MIC) [16]: > 100 µg/mL
- Minimum inhibitory concentration (MIC) [17]: 25 µg/mL
- Minimum inhibitory concentration (MIC) (Escherichia coli 0-111): 0.2 µg/mL
- Minimum inhibitory concentration (MIC) [18]: 0.78 µg/mL
- Minimum inhibitory concentration (MIC) [19]: 1.56 µg/mL
- Minimum inhibitory concentration (MIC) [20]: 25 µg/mL

Structure (SMILES): CCCCCCCCN1CCN(C(=O)NC(C(=O)NC2CN(S(=O)(=O)[O-])C2=O)c2cccs2)C(=O)C1=O.[Na+] (stereo not drawn) [Compound J, Sodium 3-[2-(4-n-octyl-2,3-dioxo-1-piperazinocarboxamido)-2-thienylacetamido]-2-oxoazetidine-1-sulfonate]
- Minimum inhibitory concentration (MIC) (Candida albicans TA): > 100 µg/mL
- Minimum inhibitory concentration (MIC) [1]: 1.56 µg/mL
- Minimum inhibitory concentration (MIC) [2]: 6.25 µg/mL
- Minimum inhibitory concentration (MIC) ([3]; medium B-TSA): 3.13 µg/mL
- Minimum inhibitory concentration (MIC) ([3]; medium TSA): 1.56 µg/mL
- Minimum inhibitory concentration (MIC) [4]: 1.56 µg/mL
- Minimum inhibitory concentration (MIC) [5]: 6.25 µg/mL
- Minimum inhibitory concentration (MIC) [6]: 6.25 µg/mL
- Minimum inhibitory concentration (MIC) [7]: 1.56 µg/mL
- Minimum inhibitory concentration (MIC) (Klebsiella pneumoniae DT): 1.56 µg/mL
- Minimum inhibitory concentration (MIC) [8]: 1.56 µg/mL
- Minimum inhibitory concentration (MIC) [9]: 3.13 µg/mL
- Minimum inhibitory concentration (MIC) [10]: 1.56 µg/mL
- Minimum inhibitory concentration (MIC) [11]: 3.13 µg/mL
- Minimum inhibitory concentration (MIC) (Escherichia coli T-7): > 100 µg/mL
- Minimum inhibitory concentration (MIC) [12]: > 100 µg/mL
- Minimum inhibitory concentration (MIC) [13]: 1.56 µg/mL
- Minimum inhibitory concentration (MIC) [14]: 25 µg/mL
- Minimum inhibitory concentration (MIC) [15]: 3.13 µg/mL
- Minimum inhibitory concentration (MIC) [16]: > 100 µg/mL
- Minimum inhibitory concentration (MIC) [17]: 25 µg/mL
- Minimum inhibitory concentration (MIC) [18]: 0.78 µg/mL
- Minimum inhibitory concentration (MIC) [19]: 1.56 µg/mL
- Minimum inhibitory concentration (MIC) [20]: 6.25 µg/mL
